Measurements as given in PubChem BioAssay (NCI).
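Cells were grown in 96-well plates and exposed to each compound for 48 hours at five concentrations; endpoints were interpolated linearly between bracketing concentrations, or set to the highest concentration if not reached. The concentration for 50% growth inhibition is given as GI50. TGI: concentration producing complete growth inhibition.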

Columns and labels:
Test in all cases: NCI anticancer screen, dose series, 48 h
[1] = tested on: SF-268 CNS
[2] = tested on: BT-549 breast
[3] = tested on: A549 NSCLC
[4] = tested on: CAKI-1 renal
[5] = tested on: HS 578T breast
[6] = tested on: SK-MEL-5 melanoma
[7] = tested on: MDA-MB-435
[8] = tested on: SK-MEL-28 melanoma
[9] = tested on: OVCAR-3 ovarian
[10] = tested on: OVCAR-4 ovarian
[11] = tested on: HCC-2998 colon
[12] = tested on: NCI-H23 lung
[13] = tested on: SR leukemia
[14] = tested on: OVCAR-5 ovarian
[15] = tested on: PC-3 prostate
[16] = tested on: OVCAR-8 ovarian
[17] = tested on: SW-620 colon
[18] = tested on: K-562 leukemia
[19] = tested on: 786-0 renal
[20] = tested on: HT29 colon
[21] = tested on: UO-31 renal
[22] = tested on: HCT-15 colon
[23] = tested on: HCT-116 colon
[24] = tested on: NCI/ADR-RES ovarian
[25] = tested on: UACC-62 melanoma
[26] = tested on: A498 renal
[27] = tested on: SNB-19 CNS
[28] = tested on: ACHN renal
[29] = tested on: MALME-3M melanoma
[30] = tested on: MOLT-4 leukemia
[31] = tested on: UACC-257 melanoma
[32] = tested on: CCRF-CEM leukemia
[33] = tested on: NCI-H522 lung
[34] = tested on: DU-145 prostate
[35] = tested on: HOP-62 NSCLC
[36] = tested on: MCF7 breast
[37] = tested on: SF-295 CNS
[38] = tested on: SK-MEL-2 melanoma
[39] = tested on: SF-539 CNS
[40] = tested on: RPMI-8226 leukemia
[41] = tested on: U251 CNS
[42] = tested on: M14 melanoma
[43] = tested on: COLO 205 colon
[44] = tested on: HL-60(TB) leukemia
[45] = tested on: EKVX NSCLC
[46] = tested on: LOX IMVI melanoma
[47] = tested on: KM12 colon
[48] = tested on: SK-OV-3 ovarian
[49] = tested on: IGROV1 ovarian
[50] = tested on: T-47D breast
[51] = tested on: NCI-H460 lung
[52] = tested on: SN12C renal
[53] = tested on: SNB-75 CNS
[54] = tested on: HOP-92 NSCLC
[55] = tested on: RXF 393 renal
[56] = tested on: NCI-H226 lung
[57] = tested on: MDA-MB-231 breast
[58] = tested on: TK-10 renal

CCN(CC)Cc1ccc(C(=S)Nc2ccc(C)cc2)s1
TGI [1]: 4.42 µM | TGI [2]: 40.2 µM | TGI [3]: 36.1 µM | TGI [4]: 29.6 µM | TGI [5]: 16.7 µM | TGI [6]: 26.5 µM | TGI [7]: 26.5 µM | TGI [8]: 30.5 µM | TGI [9]: 70.9 µM | TGI [10]: 71 µM | TGI [11]: 25.6 µM | TGI [12]: 26.5 µM | TGI [13]: 37.6 µM | TGI [14]: 29.5 µM | TGI [15]: 31.3 µM | TGI [16]: 35.3 µM | TGI [17]: 45.3 µM | TGI [18]: 26.4 µM | TGI [19]: 29.1 µM | TGI [20]: 14.4 µM | TGI [21]: 28.9 µM | TGI [22]: 32.3 µM | TGI [23]: 28.7 µM | TGI [24]: 51.9 µM | TGI [25]: 28.1 µM | TGI [26]: 27.2 µM | TGI [27]: 34.7 µM | TGI [28]: 39 µM | TGI [29]: 32.5 µM | TGI [30]: 41.6 µM | TGI [31]: 24.1 µM | TGI [32]: 30.8 µM | TGI [33]: 28.9 µM | TGI [34]: 56.7 µM | TGI [35]: 34.5 µM | TGI [36]: 25.1 µM | TGI [37]: 28.3 µM | TGI [38]: 30.2 µM | TGI [39]: 37.7 µM | TGI [40]: 46.8 µM | TGI [41]: 30 µM | TGI [42]: 28.9 µM | TGI [43]: 31.7 µM | TGI [44]: 27 µM | TGI [45]: 35.2 µM | TGI [46]: 30.2 µM | TGI [47]: 31 µM | TGI [48]: 31.1 µM | TGI [49]: 26.2 µM | TGI [50]: 37.4 µM | TGI [51]: 30.8 µM

O=C1/C(=C/c2ccc(Cl)cc2)CCC/C1=C\c1ccc(Cl)cc1
GI50 [1]: 3.24 µM | TGI [1]: 12.7 µM | GI50 [3]: 3.63 µM | TGI [3]: > 100 µM | GI50 [52]: 6.06 µM | TGI [52]: > 100 µM | GI50 [53]: > 100 µM | TGI [53]: > 100 µM | GI50 [4]: > 100 µM | TGI [4]: > 100 µM | GI50 [5]: 3.43 µM | TGI [5]: > 100 µM | GI50 [6]: 4.26 µM | TGI [6]: > 100 µM | GI50 [7]: 2.78 µM | TGI [7]: 18.8 µM | GI50 [8]: 5.8 µM | TGI [8]: > 100 µM | GI50 [9]: 3.03 µM | TGI [9]: 7.77 µM | GI50 [10]: 5.17 µM | TGI [10]: > 100 µM | GI50 [11]: 1.75 µM | TGI [11]: 3.19 µM | GI50 [12]: 3.06 µM | TGI [12]: > 100 µM | GI50 [54]: > 100 µM | TGI [54]: > 100 µM | GI50 [13]: 2.77 µM | TGI [13]: > 100 µM | GI50 [14]: > 100 µM | TGI [14]: > 100 µM | GI50 [15]: 5.46 µM | TGI [15]: > 100 µM | GI50 [55]: 1.95 µM | TGI [55]: 3.66 µM | GI50 [16]: 3.64 µM | TGI [16]: > 100 µM | GI50 [17]: 2.36 µM | TGI [17]: 6.39 µM | GI50 [18]: 3.61 µM | TGI [18]: > 100 µM | GI50 [19]: 5.55 µM | TGI [19]: > 100 µM | GI50 [20]: 2.7 µM | TGI [20]: 6.37 µM | GI50 [21]: 10.8 µM | TGI [21]: > 100 µM | GI50 [56]: 5.18 µM | TGI [56]: > 100 µM | GI50 [22]: 3.39 µM | TGI [22]: > 100 µM | GI50 [23]: 1.65 µM | TGI [23]: 3.02 µM | GI50 [24]: 4.32 µM | TGI [24]: > 100 µM | GI50 [25]: 4.39 µM | TGI [25]: > 100 µM | GI50 [26]: 2.3 µM | TGI [26]: 8.69 µM | GI50 [27]: 6.69 µM | TGI [27]: > 100 µM | GI50 [28]: 6.83 µM | TGI [28]: > 100 µM | GI50 [29]: > 100 µM | TGI [29]: > 100 µM | GI50 [30]: 4.09 µM | TGI [30]: > 100 µM | GI50 [31]: 4.17 µM | TGI [31]: > 100 µM | GI50 [32]: 3.64 µM | TGI [32]: > 100 µM | GI50 [33]: 2.78 µM | TGI [33]: 8.52 µM | GI50 [34]: 4.09 µM | TGI [34]: > 100 µM | GI50 [35]: 8.1 µM | TGI [35]: > 100 µM | GI50 [36]: 2.93 µM | TGI [36]: > 100 µM | GI50 [37]: 3.83 µM | TGI [37]: > 100 µM | GI50 [38]: > 100 µM | TGI [38]: > 100 µM | GI50 [39]: 7.85 µM | TGI [39]: > 100 µM | GI50 [57]: 9.83 µM | TGI [57]: > 100 µM | GI50 [40]: 2.1 µM | TGI [40]: 6.32 µM | GI50 [41]: 2.66 µM | TGI [41]: 7.88 µM | GI50 [42]: 3.04 µM | TGI [42]: 8.7 µM | GI50 [58]: 6.81 µM | TGI [58]: > 100 µM | GI50 [43]: 4.17 µM | TGI [43]: > 100 µM | GI50 [44]: 3.56 µM | TGI [44]: > 100 µM | GI50 [45]: > 100 µM | TGI [45]: > 100 µM | GI50 [46]: 1.69 µM | TGI [46]: 3.42 µM | GI50 [47]: 1.9 µM | TGI [47]: 3.75 µM | GI50 [48]: 9.84 µM | TGI [48]: > 100 µM | GI50 [49]: 4.13 µM | TGI [49]: > 100 µM | GI50 [50]: 8.76 µM | TGI [50]: > 100 µM | GI50 [51]: 6.93 µM | TGI [51]: > 100 µM
